# Where two headings read alike, the source gives them in different places.
# Assays:
# [1] = tested on: CYPRO; test: In-water applied weed control, transplanted paddy rice (greenhouse); assay type: in vivo, Cyperus rotundus
# Description: Weed seeds or nutlets of the desired test plant species were planted in puddled soil (mud) prepared by mixing a shredded, non-sterilized mineral soil (50.5 percent silt, 25.5 percent clay, and 24 percent sand, with a pH of about 7.6 and an organic matter content of about 2.9 percent) and water at a 1:1 volumetric ratio. The prepared mud was dispensed in 365 mL aliquots into 16-ounce (oz.) non-perforated plastic pots with a surface area of 86.59 square centimeters (cm^2) leaving a headspace of 3 centimeters (cm) in each pot. Rice seeds were planted in Sun Gro MetroMix® 306 planting mixture, which typically has a pH of 6.0 to 6.8 and an organic matter content of about 30 percent, in plastic plug trays. Seedlings at the second or third leaf stage of growth were transplanted into 860 mL of mud contained in 32-oz. non-perforated plastic pots with a surface area of 86.59 cm^2 4 days prior to herbicide application. The paddy was created by filling the headspace of the pots with 2.5 to 3 cm of water. When required to ensure good germination and healthy plants, a fungicide treatment and/or other chemical or physical treatment was applied. The plants were grown for 4-22 days in a greenhouse with an approximate 14 h photoperiod which was maintained at about 29° C. during the day and about 26° C. during the night. Nutrients were added as Osmocote® (17:6:10, N:P:K+minor nutrients) at 2 grams (g) per 16-oz. pot and 4 g per 32-oz. pot. Water was added on a regular basis to maintain the paddy flood, and supplemental lighting was provided with overhead metal halide 1000-Watt lamps as necessary. The plants were employed for testing when they reached the first through fourth true leaf stage.
# Treatments consisted of the acid or esters of 4-amino-3-chloro-5-fluoro-6-(4-chloro-2-fluoro-3-methoxy-phenyl)pyridine-2-carboxylic acid (compound A) each formulated as an SC (suspension concentrate) and various herbicidal components alone and in combination. Forms of compound A were applied on an acid equivalent basis.
# Other […] components were applied on an active ingredient basis and consisted of etofenprox (technical grade material) and sulfoxaflor formulated as Sulfoxaflor WG.
# Treatment requirements for each compound or herbicidal component were calculated based upon the rates being tested, the concentration of active ingredient or acid equivalent in the formulation, an application volume of 2 mL per component per pot, and an application area of 86.59 cm^2 per pot.
# For formulated compounds, a measured amount was placed in an individual 100 or 200 mL glass vial and was dissolved in a volume of 1.25% (v/v) AgriDex® crop oil concentrate to obtain application solutions.
# For technical grade compounds, a weighed amount was placed in an individual 100 to 200 mL glass vial and was dissolved in a volume of acetone to obtain concentrated stock solutions.
# Applications were made by injecting with a pipetter appropriate amounts of the application solutions, individually and sequentially, into the aqueous layer of the paddy. Control plants were treated in the same manner with the solvent blank. Applications were made so that all treated plant material received the same concentrations of acetone and crop oil concentrate.
# The treated plants and control plants were placed in a greenhouse as described above and water was added as needed to maintain a paddy flood. After approximately 3 weeks the condition of the test plants as compared with that of the untreated plants was determined visually and scored on a scale of 0 to 100 percent where 0 corresponds to no injury or growth inhibition and 100 corresponds to complete kill.
# Colby's equation was used to determine the herbicidal effects expected from the mixtures (Colby, S. R. Calculation of the synergistic and antagonistic response of herbicide combinations. Weeds 1967, 15, 20-22.). […]
# [2] = tested on: IPOHE; assay type: in vivo, Ipomoea hederacea
# Summary of the method: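 Foliar spray, 187 L/ha, track sprayer; 1.25% v/v COC, 8.1% acetone, 0.25% DMSO in spray. Plants at 1st–4th true leaf, greenhouse 29/26 °C. Visual injury 0–100% (0 = none, 100 = complete kill) at ~3 wk after treatment; expected mixture response by Colby.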
structure (smiles),measurement,setting,value
"CC(c1ccc(C(F)(F)F)nc1)S(C)(=O)=NC#N (centres unmarked) [Sulfoxaflor, N-[methyloxido[1-[6-(trifluoromethyl)-3-pyridinyl]ethyl]-λ^4-sulfanylidene]cyanamide]",Visual Weed Control (%) - 19 DAA CYPRO Obs,[1]; 37.5 g ai/ha alone,0%
same,Visual Weed Control (%) - 19 DAA CYPRO Obs,[1]; 75 g ai/ha alone,0%
same,Visual Weed Control (%) - 19 DAA CYPRO Obs,[1]; 150 g ai/ha alone,0%
"COc1c(Cl)ccc(-c2nc(C(=O)O)c(Cl)c(N)c2F)c1F [Compound A Acid, 4-amino-3-chloro-6-(4-chloro-2-fluoro-3-methoxyphenyl)-5-fluoropyridine-2-carboxylic acid]",Visual Weed Control (%) - 21 DAA IPOHE Obs,[2]; 5.3 g ae/ha alone,10%
same,Visual Weed Control (%) - 21 DAA IPOHE Obs,[2]; 10.6 g ae/ha alone,10%
same,Visual Weed Control (%) - 21 DAA IPOHE Obs,"[2]; 21 DAA, 5.3 g ae/ha alone",10%
same,Visual Weed Control (%) - 21 DAA IPOHE Obs,"[2]; 21 DAA, 10.6 g ae/ha alone",10%
same,Visual Weed Control (%) - 21 DAA IPOHE Obs,"[2]; 21 DAA, 21.2 g ae/ha alone",25%
same,Visual Weed Control (%) - 21 DAA IPOHE Obs,[2]; 21.2 g ae/ha alone,25%
COc1c(Cl)ccc(-c2nc(C(=O)OCc3ccccc3)c(Cl)c(N)c2F)c1F [Compound A Benzyl Ester],Visual Weed Control (%) - 20 DAA IPOHE Obs,[2]; 4.38 g ae/ha alone,10%
same,Visual Weed Control (%) - 20 DAA IPOHE Obs,[2]; 8 g ae/ha alone,10%
same,Visual Weed Control (%) - 21 DAA IPOHE Obs,[2]; 8 g ae/ha alone,10%
same,Visual Weed Control (%) - 20 DAA IPOHE Obs,[2]; 8.75 g ae/ha alone,15%
same,Visual Weed Control (%) - 20 DAA IPOHE Obs,[2]; 16 g ae/ha alone,40%
same,Visual Weed Control (%) - 21 DAA IPOHE Obs,[2]; 16 g ae/ha alone,50%
same,Visual Weed Control (%) - 22 DAA IPOHE Obs,[2]; 16 g ae/ha alone,10%
same,Visual Weed Control (%) - 19 DAA IPOHE Obs,[2]; 8 g ae/ha alone,20%
same,Visual Weed Control (%) - 19 DAA IPOHE Obs,[2]; 16 g ae/ha alone,40%
same,Visual Weed Control (%) - 19 DAA IPOHE Obs,[2]; 32 g ae/ha alone,50%
same,Visual Weed Control (%) - 21 DAA IPOHE Obs,"[2]; 21 DAA, 4.38 g ae/ha alone",10%
same,Visual Weed Control (%) - 21 DAA IPOHE Obs,"[2]; 21 DAA, 8 g ae/ha alone",10%
same,Visual Weed Control (%) - 21 DAA IPOHE Obs,"[2]; 21 DAA, 8.75 g ae/ha alone",10%
same,Visual Weed Control (%) - 21 DAA IPOHE Obs,"[2]; 21 DAA, 17.5 g ae/ha alone",20%
same,Visual Weed Control (%) - 22 DAA IPOHE Obs,"[2]; 22 DAA, 16 g ae/ha alone",10%
same,Visual Weed Control (%) - 22 DAA IPOHE Obs,"[2]; 22 DAA, 32 g ae/ha alone",35%
same,Visual Weed Control (%) - 20 DAA IPOHE Obs,[2]; 32 g ae/ha alone,50%
same,Visual Weed Control (%) - 21 DAA IPOHE Obs,[2]; 32 g ae/ha alone,60%
same,Visual Weed Control (%) - 22 DAA IPOHE Obs,[2]; 32 g ae/ha alone,35%
same,Visual Weed Control (%) - 19 DAA CYPRO Obs,[1]; 8 g ae/ha alone,20%
same,Visual Weed Control (%) - 19 DAA CYPRO Obs,[1]; 16 g ae/ha alone,88%
same,Visual Weed Control (%) - 19 DAA CYPRO Obs,[1]; 32 g ae/ha alone,87%
same,Visual Weed Control (%) - 21 DAA CYPRO Obs,"[1]; 21 DAA, 8 g ae/ha alone",40%
